This passage reports inhibition, IC50 and melting point results from patent US6900200B2, “Tricyclic hydroxy carboxamides and derivatives thereof tocolytic oxytocin receptor antagonists” (Wyeth, priority 2001, dated 2005).

For one series, the target named is T1, human vasopressin V1a receptor subtype (Homo sapiens, UniProt P37288).
T1 construct: host or cells: CHO cells; pZeoSV vector for the Thibonnier line
T1 sequence (P37288 whole entry): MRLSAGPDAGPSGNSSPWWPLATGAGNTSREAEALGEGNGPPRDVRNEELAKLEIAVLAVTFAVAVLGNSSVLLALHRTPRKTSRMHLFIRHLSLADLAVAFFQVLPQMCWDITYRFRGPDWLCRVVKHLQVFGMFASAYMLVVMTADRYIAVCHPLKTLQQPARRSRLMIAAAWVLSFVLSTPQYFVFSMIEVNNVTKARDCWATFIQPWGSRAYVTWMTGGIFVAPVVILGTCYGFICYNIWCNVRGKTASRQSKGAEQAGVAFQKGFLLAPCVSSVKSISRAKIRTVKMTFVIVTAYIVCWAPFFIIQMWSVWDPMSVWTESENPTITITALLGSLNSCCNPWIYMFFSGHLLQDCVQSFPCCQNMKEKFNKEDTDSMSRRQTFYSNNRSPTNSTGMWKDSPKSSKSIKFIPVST
Kind of series: Vasopressin binding in CHO cell membranes expressing human vasopressin V1a subtype receptors ([3H]Manning ligand radioligand binding). Particulars: @ 100 nM. The text has this:
Vasopressin Binding in Chinese Hamster Ovary Cell Membranes Expressing Human Vasopressin V1a Subtype Receptors
Chinese hamster ovary cells (CHO cells) stably transfected with the human vasopressin V1a subtype receptors were either obtained from BioSignal Inc., 1744 rue Williams, Montreal, Quebec, Canada or obtained from M. Thibonnier, Case Western Reserve University School of Medicine, Cleveland, Ohio.
A. Passaging and Amplification of Cells
CHO cells transfected with the human vasopressin V1a subtype receptors obtained from M. Thibonnier (pZeoSV vector) are allowed to grow to confluency (approx. >90%) in T-150 flasks under sterile conditions, in a cell culture medium of F-12 Nutrient Mixture (HAM) with L-glutamine (Gibco Cat. #11765-054) containing 15 mM HEPES (Gibco Cat. #15630-080), 1% antibiotic/antimycotic (add 5 mL 100×, Gibco Cat. #15240-062 per 500 mL F-12), 250 μg/mL Zeocin (add 1.25 mL of 100 mg/mL Invitrogen R-250-01 per 500 mL F-12) and 10% Fetal Bovine Serum (Qualified, heat inactivated, Gibco Cat. #16140-063). The medium is removed by aspiration and the cells are washed with 10 mL of Hank's Balanced Salt solution (Gibco Cat. #14175-095). The salt solution is removed by aspiration and the cells are trypsinized with 5 mL of trypsin-EDTA (0.05% trypsin, 0.53 mM EDTA-4Na, Gibco Cat. #25300-070) for 1 min. The trypsin is removed by aspiration and the cells dislodged by tapping. Cell Culture medium (e.g. 30 mL for 1:30 split) is immediately added and mixed well to inactivate trypsin. 1 mL of detached cells is added to new culture flasks containing fresh cell culture medium (e.g., into 25 mL per T-150 flask), and mixed gently. The cells are incubated at 37° C. in 5% CO2. The medium is changed at 3 to 4 days interval (or as appropriate). The cells grow to confluency (approx. >75%-95%) within 7-8 days. All steps are done under sterile conditions.
The cells are washed twice gently with Hank's Balanced Salt solution (e.g,. use 10 mL per T-150 flask). The excess is removed and the cells are bathed for 15-30 min. in an enzyme-free Cell Dissociation Buffer (e.g. use 8 mL Hank's Based, Gibco Cat. #13150-016 per T-150 flask) until the cells are loosened. The contents are transferred to centrifuge tubes (50 mL) kept in an ice bath. All subsequent steps are done at 4° C. The tubes are centrifuged at 300×g for 15 min (1380 rpm on SORVAL, Model RT6000D, using the rotor for 50 mL tubes). The supernatant is discarded and the cells suspended in homogenizing buffer(10 mM Tris-HCl containing 0.25 M sucrose and 1 mM EDTA, pH 7.4) ensuring that the volume of the buffer is about ten times the volume of the cell pellet. The cells are pooled into a centrifuge tube (50 mL) and homogenized with Polytron at setting 6 for 10 sec. The homogenate is transferred into a Potter-Elvjehm homogenizer and homogenized with 3 strokes. The homogenate is centrifuged at 1500×g for 10 min at 4° C. (3100 rpm using SORVAL, model RT6000D, using the rotor for 50 mL tubes). The pellet is discarded. The supernatant is centrifuged at 100,000×g for 60 min. at 4° C. (Beckman L8-80M ultracentrifuge; spin at 37,500 rpm with rotor type 70 Ti for 50 mL tubes; 38,000 rpm with type 80Ti for 15 mL tubes; or 35,800 rpm with rotor type 45Ti). The supernantant is discarded and the pellet suspended in 3 to 4 mL of Tris buffer (50 mM TRIS—HCl, pH 7.4). The protein content is estimated by the Bradford or Lowry method. The volume of the membrane suspension is adjusted with the membrane buffer (50 mM Tris-HCl containing 0.1% BSA and 0.1 mM PMSF) to give 3.0 mg/mL (or as appropriate) of protein. The membranes are aliquoted and stored at −70° C.
C. Radioligand Binding Assay […]
A word on the inhibition: it is the drop in the measured response relative to a control, in per cent. For the molecule `COCCN1CCN(C(=O)c2ccc3n2Cc2ccccc2N(C(=O)c2ccc(-c4ccccc4C(F)(F)F)c(C)c2)C3)CC1` [Example 7, Methyl 2-{4-[(10-{[2-methyl-2′-trifluoromethyl-[1,1′-biphenyl]-4-yl]carbonyl}-10,11-dihydro-5H-pyrrolo[2,1-c][1,4]benzodiazepin-3-yl)carbonyl]piperazin-1-yl}ethyl ether], the inhibition at 0.1 µM is -2%.
`COc1cccc(-c2ccc(C(=O)N3Cc4ccc(C(=O)N5CCN(CCO)CC5)n4Cc4ccccc43)cc2OC)c1` [Example 50, {10-[(2,3′-Dimethoxy[1,1′-biphenyl]-4-yl)carbonyl]-10,11-dihydro-5H-pyrrolo[2,1-c][1,4]benzodiazepin-3-yl}[4-(2-hydroxyethyl)-1-piperazinyl]methanone]: the inhibition at 0.1 µM was 52%.
Same read-out and setting: the same measure for `COc1ccccc1-c1ccc(C(=O)N2Cc3ccc(C(=O)N4CCN(CCO)CC4)n3Cc3ccccc32)cc1` [Example 47, [4-(2-Hydroxyethyl)-1-piperazinyl]{10-[(2′-methoxy[1,1′-biphenyl]-4-yl)carbonyl]-10,11-dihydro-5H-pyrrolo[2,1-c][1,4]benzodiazepin-3-yl}methanone]: 12%.
As to `Cc1ccccc1-c1ccc(C(=O)N2Cc3ccc(C(=O)N4CCN(CCO)CC4)n3Cc3ccccc32)cc1` [Example 45, [4-(2-Hydroxyethyl)-1-piperazinyl]{10-[(2′-methyl[1,1′-biphenyl]-4-yl)carbonyl]-10,11-dihydro-5H-pyrrolo[2,1-c][1,4]benzodiazepin-3-yl}methanone], the inhibition at 0.1 µM is 57%.
The same measure, in the same setting: the same measure for `COc1ccccc1-c1ccc(C(=O)N2Cc3ccc(C(=O)N(C)C[C@H](O)CO)n3Cc3ccccc32)cc1C` (single isomer, unassigned) [Example 15]: 59%; for `COc1cccc(-c2cc(OC)c(C(=O)N3Cc4ccc(C(=O)N5CCN(CCO)CC5)n4Cc4ccccc43)cc2Cl)c1` [Example 49, {10-[(6-Chloro-3,3′-dimethoxy[1,1′-biphenyl]-4-yl)carbonyl]-10,11-dihydro-5H-pyrrolo[2,1-c][1,4]benzodiazepin-3-yl}[4-(2-hydroxyethyl)-1-piperazinyl]methanone]: 1%.
For `COc1cc(C(=O)N2Cc3ccc(C(=O)N4CCN(CCO)CC4)n3Cc3ccccc32)ccc1-c1cccc2ccccc12` [Example 41, [4-(2-Hydroxyethyl)-1-piperazinyl]{10-[3-methoxy-4-(1-naphthyl)benzoyl]-10,11-dihydro-5H-pyrrolo[2,1-c][1,4]benzodiazepin-3-yl}methanone], the inhibition at 0.1 µM was determined as 12%.
In the case of `COc1cc(C(=O)N2Cc3ccc(C(=O)N4CCN(CCO)CC4)n3Cc3ccccc32)ccc1-n1c(C)ccc1C` [Example 52, {10-[4-(2,5-Dimethyl-1H-pyrrol-1-yl)-3-methoxybenzoyl]-10,11-dihydro-5H-pyrrolo[2,1-c][1,4]benzodiazepin-3-yl}[4-(2-hydroxyethyl)-1-piperazinyl]methanone], the inhibition at 0.1 µM amounted to 7%.
As for `Cc1ccccc1-c1ccc(C(=O)N2Cc3ccc(C(=O)N4CCN(CCO)CC4)n3Cc3ccccc32)cc1C` [Example 46, {10-[(2,2′-Dimethyl[1,1′-biphenyl]-4-yl)carbonyl]-10,11-dihydro-5H-pyrrolo[2,1-c][1,4]benzodiazepin-3-yl}[4-(2-hydroxyethyl)-1-piperazinyl]methanone], the inhibition at 0.1 µM was 53%.
Regarding `O=C(c1ccc2n1Cc1ccccc1N(C(=O)c1ccc(-c3cccc4ccccc34)cc1Cl)C2)N1CCN(CCO)CC1` [Example 25, 2-{4-[10-{[2-Chloro-4-(naphthalen-1-yl)phenyl]carbonyl}-(10,11-dihydro-5H-pyrrolo[2,1-c][1,4]benzodiazepin-3-yl)carbonyl]piperazine-1-yl}-1-hydroxyethane], the inhibition at 0.1 µM was 5%.
Consider `COc1ccccc1-c1ccc(C(=O)N2Cc3ccc(C(=O)N4CCN(CCO)CC4)n3Cc3ccccc32)cc1OC` [Example 43, {10-[(2,2′-Dimethoxy[1,1′-biphenyl]-4-yl)carbonyl]-10,11-dihydro-5H-pyrrolo[2,1-c][1,4]benzodiazepin-3-yl}[4-(2-hydroxyethyl)-1-piperazinyl]methanone], for which the inhibition at 0.1 µM was 1%.

The series is the same for the next values; noted with them: value printed in parentheses.
The term IC50 denotes the point on the concentration scale where inhibition reaches its midpoint. In the case of `COc1cc(C(=O)N2Cc3ccc(C(=O)N(C)C[C@@H](O)[C@H](O)[C@H](O)[C@@H](O)CO)n3Cc3ccccc32)ccc1-c1ccccc1C(F)(F)F` (stereo in doubt) [Example 23, 10-{[2-Methoxy-2′-trifluoromethyl-[1,1′-biphenyl]-4-yl]carbonyl}-N-methyl-N-[(2R,3S,4R,5S)-2,3,4,5,6-pentahydroxyhexyl]-10,11-dihydro-5H-pyrrolo[2,1-c][1,4]benzodiazepine-3-carboxamide], the IC50 was 1.08 µM.
On the same count and under the same terms, then `COc1ccccc1-c1ccc(C(=O)N2Cc3ccc(C(=O)N(C)CC(O)CO)n3Cc3ccccc32)cc1C` (stereo not drawn) [Example 14, 10-[(2′-Methoxy-2-methyl-[1,1′-biphenyl]-4-yl)carbonyl]-10,11-dihydro-5H-pyrrolo[2,1-c][1,4]benzodiazepine-3-carboxylic acid (2,3-dihydroxy-propyl)-methyl-amide], with 0.144 µM.
On to `Cc1cc(C(=O)N2Cc3ccc(C(=O)N(C)CC4COC(=O)O4)n3Cc3ccccc32)ccc1-c1ccccc1C(F)(F)F` (stereo not drawn) [Example 11, 10-[(2-Methyl-2′-trifluoromethyl-[1,1′-biphenyl]-4-yl)carbonyl]-10,11-dihydro-5H-pyrrolo[2,1-c][1,4]benzodiazepine-3-carboxylic acid methyl-[(2-oxo-[1,3]dioxolan-4-yl)methyl]-amide], for which the IC50 came out at 1.37 µM.
On the same count and under the same terms, then `COC[C@@H](O)CN1CCN(C(=O)c2ccc3n2Cc2ccccc2N(C(=O)c2ccc(-c4ccccc4C(F)(F)F)c(C)c2)C3)CC1` [Example 9, [3-({4-[(2S)-2-Hydroxy-3-methoxypropyl]-1-piperazinyl}carbonyl)-5H-pyrrolo[2,1-c][1,4]benzodiazepin-10(11H)-yl][2-methyl-2′-trifluoromethyl-[1,1′-biphenyl]-4-yl]methanone], with 2.01 µM; and `Cc1cc(C(=O)N2Cc3ccc(C(=O)N(C)C[C@@H]4OC(=O)O[C@H]4[C@H](O)[C@H]4COC(=O)O4)n3Cc3ccccc32)ccc1-c1ccccc1C(F)(F)F` [Example 12, N-[((4S,5S)-5-{(R)-Hydroxy[(4R)-2-oxo-1,3-dioxolan-4-yl]methyl}-2-oxo-1,3-dioxolan-4-yl)methyl]-N-methyl-10-{[2-methyl-2′-(trifluoromethyl)[1,1′-biphenyl]-4-yl]carbonyl}-10,11-dihydro-5H-pyrrolo[2,1-c]benzodiazepine-3-carboxamide], with 1.61 µM; and `Cc1cc(C(=O)N2Cc3ccc(C(=O)N(CCO)CCO)n3Cc3ccccc32)ccc1-c1ccccc1C(F)(F)F` [Example 1, 10-[(2-Methyl-2′-trifluoromethyl-[1,1′-biphenyl]-4-yl)carbonyl]-10,11-dihydro-5H-pyrrolo[2,1-c][1,4]benzodiazepine-3-carboxylic acid bis-(2-hydroxy-ethyl)-amide], with 1.39 µM.

System in another series: not given
Experiment: not given
Settings: not given
By melting point is commonly meant the temperature, or range, at which the solid turns liquid. `COCCN1CCN(C(=O)c2ccc3n2Cc2ccccc2N(C(=O)c2ccc(-c4ccccc4C(F)(F)F)c(C)c2)C3)CC1` [Example 7, Methyl 2-{4-[(10-{[2-methyl-2′-trifluoromethyl-[1,1′-biphenyl]-4-yl]carbonyl}-10,11-dihydro-5H-pyrrolo[2,1-c][1,4]benzodiazepin-3-yl)carbonyl]piperazin-1-yl}ethyl ether] came in with a melting point of 140 to 144 °C.
